Reference: patent publication EP0496162A2, “Peptide inhibitors of RAS-GAP interaction” (MERCK & CO. INC., priority 1990, dated 1992)
No end group written: not given here.

Tests used:
[1] = biological target: T1, S. cerevisiae adenylyl cyclase (Ras Dependent, strain MY1186) (Saccharomyces cerevisiae, UniProt P08678); experiment: Yeast adenylyl cyclase assay, Ras-dependent, membranes from strain MY1186 (expresses mammalian Ras); type: biochemical; settings: part A
T1 construct: S. cerevisiae strain MY1186 lacks endogenous yeast Ras, expresses viral Ha-Ras, and has a Ras-dependent adenylyl cyclase; endogenous in cells; host or cells: membranes of recombinant S. cerevisiae strain MY1186 (cyclase endogenous; Ha-Ras heterologously expressed)
T1 sequence (P08678 whole entry): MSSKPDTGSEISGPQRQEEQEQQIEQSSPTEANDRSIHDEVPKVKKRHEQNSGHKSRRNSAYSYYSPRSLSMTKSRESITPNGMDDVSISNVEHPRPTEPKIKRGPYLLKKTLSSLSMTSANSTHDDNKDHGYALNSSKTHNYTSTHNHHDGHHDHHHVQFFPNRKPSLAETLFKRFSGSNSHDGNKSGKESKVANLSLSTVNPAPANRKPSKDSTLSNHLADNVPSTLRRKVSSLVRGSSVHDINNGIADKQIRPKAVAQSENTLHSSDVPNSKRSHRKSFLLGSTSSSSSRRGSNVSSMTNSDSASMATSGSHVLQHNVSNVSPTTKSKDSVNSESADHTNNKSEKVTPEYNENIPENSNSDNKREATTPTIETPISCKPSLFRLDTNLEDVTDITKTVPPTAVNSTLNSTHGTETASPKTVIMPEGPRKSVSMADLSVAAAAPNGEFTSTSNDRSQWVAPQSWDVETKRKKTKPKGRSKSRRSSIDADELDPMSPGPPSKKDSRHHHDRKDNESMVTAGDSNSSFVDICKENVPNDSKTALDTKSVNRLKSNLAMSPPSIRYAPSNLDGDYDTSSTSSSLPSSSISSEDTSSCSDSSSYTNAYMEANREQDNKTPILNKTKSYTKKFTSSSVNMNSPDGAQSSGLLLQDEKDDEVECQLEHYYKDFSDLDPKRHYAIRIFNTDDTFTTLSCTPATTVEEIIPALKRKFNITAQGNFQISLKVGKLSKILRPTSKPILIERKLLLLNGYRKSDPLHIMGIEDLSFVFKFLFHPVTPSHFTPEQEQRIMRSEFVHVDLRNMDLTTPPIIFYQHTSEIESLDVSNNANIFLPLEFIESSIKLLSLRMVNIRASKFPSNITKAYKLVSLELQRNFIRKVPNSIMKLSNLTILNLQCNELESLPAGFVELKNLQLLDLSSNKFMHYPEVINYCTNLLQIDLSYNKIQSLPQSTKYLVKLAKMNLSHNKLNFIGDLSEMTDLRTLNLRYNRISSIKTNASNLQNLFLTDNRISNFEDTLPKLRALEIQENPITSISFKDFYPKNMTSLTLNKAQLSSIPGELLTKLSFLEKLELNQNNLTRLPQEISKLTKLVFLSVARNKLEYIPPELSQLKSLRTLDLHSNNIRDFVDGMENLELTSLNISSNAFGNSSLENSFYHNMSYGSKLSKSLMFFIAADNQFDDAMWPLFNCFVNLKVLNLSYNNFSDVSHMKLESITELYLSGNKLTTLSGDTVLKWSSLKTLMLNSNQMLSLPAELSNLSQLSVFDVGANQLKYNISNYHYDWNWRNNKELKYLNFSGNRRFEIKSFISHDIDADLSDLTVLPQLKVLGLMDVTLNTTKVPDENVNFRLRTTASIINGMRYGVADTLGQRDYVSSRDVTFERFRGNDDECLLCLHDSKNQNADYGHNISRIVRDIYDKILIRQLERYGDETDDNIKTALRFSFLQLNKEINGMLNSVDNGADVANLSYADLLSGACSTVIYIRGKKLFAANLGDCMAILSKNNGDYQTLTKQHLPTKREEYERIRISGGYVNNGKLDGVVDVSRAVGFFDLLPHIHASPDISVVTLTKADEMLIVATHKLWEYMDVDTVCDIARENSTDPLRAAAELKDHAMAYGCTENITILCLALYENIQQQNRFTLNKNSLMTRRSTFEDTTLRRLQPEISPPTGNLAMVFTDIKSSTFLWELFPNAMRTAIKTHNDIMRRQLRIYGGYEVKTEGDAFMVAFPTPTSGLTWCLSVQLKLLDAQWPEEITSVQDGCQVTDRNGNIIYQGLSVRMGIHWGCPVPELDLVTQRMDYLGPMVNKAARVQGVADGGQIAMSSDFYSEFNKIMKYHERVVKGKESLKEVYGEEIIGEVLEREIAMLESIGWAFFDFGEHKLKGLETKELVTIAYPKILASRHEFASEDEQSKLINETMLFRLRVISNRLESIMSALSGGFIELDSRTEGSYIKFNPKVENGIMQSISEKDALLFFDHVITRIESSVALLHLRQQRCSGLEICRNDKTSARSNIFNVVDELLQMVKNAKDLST
Source text: (§1) Another Ras-dependent enzymatic assay was used to extend the observed ability of the peptides of the present invention to inhibit Ras function. This system, yeast adenylyl cyclase assay, measures the Ras-dependent conversion of ATP into cyclic AMP (cAMP). […] Furthermore, in S. cerevisiae, regulation of cAMP metabolism appears to be a major function of Ras. This assay system was used to extend the observed Ras inhibitory activity of the peptides of the present invention, to a Ras function which is GAP-unrelated. S. cerevisiae strain FlD lacks functional Ras proteins, however FlD cells have functional adenylyl cyclase in their cell membrane. […] Similarly, a recombinant S. cerevisiae strain MY1186, lacks yeast Ras proteins but expresses mammalian Ras protein which functions with adenylyl cyclase to regulate cAMP metabolisim in the yeast cells. […] In contrast, S. cerevisiae strain JC377-10B contains a mutant form of adenylyl cyclase which constitutively converts ATP into cAMP with or without Ras.
(§2) Ras peptides were tested at the indicated concentrations for inhibition of S. cerevisiae adenylyl cyclase activity. […] Ras-independent activity was assayed with membranes from strain JC377-10B (ras-minus, constitutively active adenylyl cyclase).
(§3) Yeast strain FlD, MY1186 and JC377-10B, were grown in YEHD medium at 30°C. Membrane fractions were prepared from cultures grown to an A₆₆₀ of 0.5 to 1.0 by glusulase digestion [Casperson, G.F. et al., (1983), J. Biol. Chem., 258, pp. 7911-7914], Dounce homogenization of the spheroplasts in buffer containing 50 mM sodium MES [2(N-morpholino) ethanesulfonic acid] […] Adenylyl cyclase assays (100-µL reaction volume) measured the conversion of [α-³²P]ATP to [³²P]cAMP at 30°C, using 50 µg to 100 µg of membrane protein in assays using membranes from yeast strains MY1186 and JC377-10B.. […] Since these membranes contain adenylyl cyclase, but are lacking Ras protein, stimulation of adenylyl cyclase activity may be measured following reconstitution with purified Ras complexed with GTP. […]

[2] = biological target: T2, S. cerevisiae adenylyl cyclase (Ras Dependent, strain FlD reconstituted with purified Ras) (Saccharomyces cerevisiae, UniProt P08678); experiment: Yeast adenylyl cyclase assay, reconstitution of FlD membranes with purified Ras protein; type: biochemical; settings: part B, FlD membranes with 5 µM purified Ras protein, peptide 10 µM
T2 construct: Since these membranes contain adenylyl cyclase, but are lacking Ras protein; endogenous in cells; host or cells: membranes of S. cerevisiae strain FlD
T2 sequence (P08678 whole entry): as above
Source text: as §1, §2, §3

Compound | %Inhibition of Adenylyl Cyclase Activity Ras Dependent ([1]; peptide 19 µM) [%] | %Inhibition of Adenylyl Cyclase Activity Ras Dependent [2] [%] | %Inhibition of Adenylyl Cyclase Activity Ras Dependent ([1]; peptide 100 µM) [%] | %Inhibition of Adenylyl Cyclase Activity Ras Dependent ([1]; peptide 40 µM) [%]
CC[C@H](C)[C@H](NC(=O)[C@H](CC(C)C)NC(=O)[C@H](CCC(N)=O)NC(=O)[C@@H](NC(=O)[C@@H](NC(=O)[C@H](CC(C)C)NC(=O)[C@H](C)NC(=O)[C@@H](N)CO)[C@@H](C)O)[C@@H](C)CC)C(=O)N[C@@H](CCC(N)=O)C(=O)N[C@@H](CC(N)=O)C(=O)N[C@@H](Cc1c[nH]cn1)C(=O)N[C@@H](Cc1ccccc1)C(=O)N[C@H](C(=O)N[C@@H](CC(=O)O)C(=O)N[C@@H](CCC(=O)O)C(=O)N[C@@H](Cc1ccc(O)cc1)C(=O)O)C(C)C [Ras 17-32] | 34 | 26 ± 2 | – | –
LIQNHFVDEYDPTIE [Ras 23-37] | – | 5 ± 1 | 2 | –
SALTIQLIQNHFVDEYDPTIE [Ras 17-37] | – | – | – | 58 ± 2
